In ChEMBL document CHEMBL1156829 (Proc Natl Acad Sci U S A, 2008):
Several values for one entry are separate records, joined by “and”; a condition that tells them apart may be missing. Identical values can stand only once. Counter-ions that a name gives are not always drawn. Numbered stars: 1 amine (or outer) side, 2 acyl side, 3 side chain; on linkers, the order of the positions; unused ones are H or OH. Bridge positions count the residues as written; N and C are the ends. Square brackets hold non-standard residues; d marks the D form. Peptide text beside a SMILES is read from it. I, II: the chains in the order shown. Actinocin(1to9) = Cc1c2oc3c(C)ccc(C(=O)[*:2])c3nc-2c(C(=O)[*:1])c(N)c1=O; NMeV = CN[C@H](C(=O)O)C(C)C; Sar = CNCC(=O)O

Columns and labels:
Plasmodium falciparum [1] = experiment: NOVARTIS: Inhibition of Plasmodium falciparum 3D7 (drug-susceptible) proliferation in erythrocyte-based infection assay; format: functional, organism-based
Huh-7 = experiment: NOVARTIS: Cytotoxicity against human hepatocellular carcinoma cell line (Huh7); format: toxicity, cell-based
Plasmodium falciparum [2] = experiment: NOVARTIS: Inhibition of Plasmodium falciparum W2 (drug-resistant) proliferation in erythrocyte-based infection assay; format: functional, organism-based; settings: read-out: EC50

Compound	EC50 (Plasmodium falciparum [1]; Plasmodium falciparum, 3D7) [nM]	CC50 (Huh-7; huh-7, read-out: CC50)	EC50 (Plasmodium falciparum [2]; Plasmodium falciparum, W2) [nM]	EC50 (Plasmodium falciparum [1])	EC50 (Plasmodium falciparum [2])	CC50 (Huh-7; huh-7)
CC[n+]1c(/C=C/N2CCCc3ccccc32)ccc2ccccc21 [listing 1 of 2 here]	75.7	2340 nM	145			
CCN1C(=Cc2sc3ccccc3[n+]2C)C=Cc2cccc(C)c21 [listing 1 of 2 here]		> 10000 nM		493 nM	800 nM	
CCCCN1C(=Cc2cccc[n+]2C)Sc2cc(NC(C)=O)ccc21		> 100000 nM		2110 nM	3670 nM	
COc1ccc(/C=C2/SC(=Nc3ccccc3)NC2=O)c(OC)c1	539	> 100000 nM	428	660 nM	250 nM	
O=C(NCCc1ccccc1)C1CCC(Cn2c(=S)[nH]c3ccccc3c2=O)CC1 (stereo not drawn)	> 1650		1750			No fit
C=CC[n+]1c(C=C2C=CC=CN2C)sc2ccccc21		> 100000 nM		281 nM	403 nM	
CCN1C(=Cc2ccc3ccccc3[n+]2CC)C=Cc2sc3ccccc3c21		2970 nM and 27800 nM		188 nM and 50.9 nM	44 nM and 148 nM	
C/C(C=NNC(=O)c1ccco1)=C\c1ccccc1		> 100000 nM	> 1100	> 1760 nM and 486 nM	650 nM	
Cc1occc1C(=O)NN=C/C(Cl)=C/c1ccccc1	255	> 10000 nM and 64300 nM		291 nM	116 nM and 392 nM	
CC[n+]1c(C=C2Sc3ccccc3N2CCO)sc2ccccc21 [listing 1 of 2 here]		> 100000 nM		336 nM	511 nM	
Cc1[nH]c2ccccc2c1/C=C/c1cc[n+](C)cc1	259	> 10000 nM	116			
CCN(CC)c1ccc(C=Cc2cccc[n+]2CC)cc1 [listing 1 of 2 here]		44900 nM		88.5 nM	131 nM	
CC[n+]1c(/C=C2\C=Cc3cc(C)ccc3N2C)ccc2cc(C)ccc21		> 10000 nM and 32100 nM	> 1250	> 1150 nM and 225 nM	961 nM	
CC1=C(C=CC(C)C=NNC(=O)c2ccncc2)C(C)(C)CCC1 (stereo not drawn)	896	> 100000 nM	863	1420 nM	1110 nM	
CCCC[n+]1c(C=C2C=Cc3ccccc3N2CC)sc2ccccc21		6120 nM		81.5 nM	228 nM	
CCN1/C(=C/c2sc3ccccc3[n+]2CC)Sc2ccccc21 [listing 1 of 2 here]		11100 nM		187 nM	10.8 nM	
CCN1/C(=C/c2cccc[n+]2C)Sc2ccccc21		> 100000 nM		4250 nM and 440 nM	1070 nM and 2700 nM	
C=CCN1C(=O)/C(=C2/Sc3ccc(OC)cc3N2C)SC1=Nc1ccccc1-c1ccccc1	1180	> 100000 nM	488	2120 nM	838 nM	
CN1/C(=C/c2cccc[n+]2C)C=Cc2ccccc21	446	> 100000 nM	526	557 nM	779 nM	
CCN1/C(=C/c2ccc3ccccc3[n+]2CC)Sc2cc(NC(C)=O)ccc21 [listing 1 of 2 here]		> 100000 nM		112 nM	70.8 nM	
CCOc1ccc2nccc([C@@H](O)[C@@H]3C[C@@H]4CCN3C[C@@H]4CC)c2c1 [ETHYLHYDROCUPREINE HYDROCHLORIDE]		> 10000 nM		39 nM	< 3.48 nM	
CC[n+]1c(C=CN(C)C)sc2ccccc21	459	27100 nM			1360 nM	

Compound	EC50 (Plasmodium falciparum [1]; Plasmodium falciparum, 3D7) [nM]	CC50 (Huh-7; huh-7, read-out: CC50)	EC50 (Plasmodium falciparum [2]; Plasmodium falciparum, W2) [nM]	EC50 (Plasmodium falciparum [1])	EC50 (Plasmodium falciparum [2])	CC50 (Huh-7; huh-7)
CC[n+]1c(C=CN(C)c2ccccc2)sc2ccc(OC)cc21	920	> 10000 nM	400			
CC[n+]1c(/C=C/N2CCCc3ccccc32)ccc2ccccc21 [listing 2 of 2 here]		> 9970 nM		103 nM	246 nM	
CCN1/C(=C/c2[se]c3ccccc3[n+]2CC)C=Cc2cc(OC)ccc21 [listing 1 of 2 here]		12700 nM		1590 nM	977 nM	
CCN(CC)c1ccc(C=Cc2cccc[n+]2CC)cc1 [listing 2 of 2 here]		> 10000 nM		2.44 nM	290 nM	
CC[n+]1c(C=CN(C)c2ccccc2)oc(-c2ccccc2)c1-c1ccccc1		> 10000 nM and 2740 nM		617 nM and 193 nM	410 nM and 105 nM	
Cc1cc(=O)n(-c2nc(-c3ccccc3O)nc3ccccc23)[nH]1	824		752			No fit
COc1ccc2c(ccc(/C=C3\C=CC=CN3C)[n+]2C)c1	316	> 100000 nM	886	581 nM	524 nM	
COc1ccc2c(c1)N(C)/C(=C/c1cccc[n+]1C)S2		> 100000 nM		941 nM and 219 nM	> 787 nM and 302 nM	
CCN1/C(=C/c2cccc[n+]2C)Sc2ccc(OC)cc21	207	> 100000 nM			> 867 nM and 304 nM	
Cc1cccc(N=C2NC(=O)/C(=C\c3ccc(N(C)C)cc3)S2)c1	784	> 100000 nM		1180 nM	1640 nM and 508 nM	
C[n+]1ccccc1C=Cc1cc(Br)ccc1O [listing 1 of 2 here]	302	> 10000 nM	441			
CCOC(=O)c1ccc(-n2c(C)cc(/C=C3\SC(=Nc4ccc(Cl)cc4)NC3=O)c2C)cc1		> 100000 nM	1700	844 nM and 3370 nM	1420 nM	
CCN1/C(=C/c2[se]c3ccccc3[n+]2CC)C=Cc2cc(OC)ccc21 [listing 2 of 2 here]		4950 nM		171 nM	266 nM	
CCN1/C(=C/c2ccc3cc(C)ccc3[n+]2C)Sc2ccc3ccsc3c21		> 10000 nM and 55900 nM	> 1250	951 nM and 371 nM	843 nM	
CCn1c(/C=C/N(C)c2ccccc2)[n+](CC)c2cc(Cl)ccc21		22600 nM and > 10000 nM		391 nM and 91.3 nM	513 nM and 87.8 nM	
C=C(c1ccccc1)[n+]1ccc(/C=C/c2ccccc2O)cc1		> 10000 nM and 92700 nM	277	355 nM and 739 nM	289 nM	
O=C1NN(c2ccccc2)C(=O)/C1=C1/C(=O)N(Cc2cccc3ccccc23)c2ccccc21		> 100000 nM		> 541 nM and 5050 nM	> 1250 nM and 3260 nM	
CCOc1ccc(Br)cc1/C=C1\SC(=Nc2ccccc2CC)N(c2ccccc2CC)C1=O		> 100000 nM		8330 nM and > 835 nM	> 1250 nM and 4860 nM	
CCN1C(=Cc2sc3ccc(OC)cc3[n+]2CC)C=Cc2ccccc21		9870 nM	249	417 nM		
OC(CN1CCN(C/C=C/c2ccccc2)CC1)Cn1c2ccc(Cl)cc2c2cc(Cl)ccc21 (stereo not drawn)	660		162			No fit
CCN1/C(=C/C=C/C2=[N+](C)c3ccc(C)cc3C2(C)C)C=Cc2ccccc21		> 10000 nM and 4990 nM		861 nM and 158 nM	860 nM and 184 nM	
Cc1nn(CC(O)Cn2c3ccc(Cl)cc3c3cc(Cl)ccc32)c(C)c1Br (stereo not drawn)	602		190			No fit

Compound	EC50 (Plasmodium falciparum [1]; Plasmodium falciparum, 3D7) [nM]	CC50 (Huh-7; huh-7, read-out: CC50)	EC50 (Plasmodium falciparum [2]; Plasmodium falciparum, W2) [nM]	EC50 (Plasmodium falciparum [1])	EC50 (Plasmodium falciparum [2])	CC50 (Huh-7; huh-7)
CCN1/C(=C/c2ccc3ccccc3[n+]2CC)Sc2cc(NC(C)=O)ccc21 [listing 2 of 2 here]		> 10000 nM		930 nM	714 nM	
CC[n+]1c(C=C2Sc3ccccc3N2CCO)sc2ccccc21 [listing 2 of 2 here]		> 10000 nM		1410 nM	> 1480 nM	
Cc1c2oc3c(C)ccc(C(=O)N[C@@H]4C(=O)N[C@H](C(C)C)C(=O)N5CCC[C@H]5C(=O)N(C)CC(=O)N(C)[C@@H](C(C)C)C(=O)O[C@@H]4C)c3nc-2c(C(=O)N[C@@H]2C(=O)N[C@H](C(C)C)C(=O)N3CCC[C@H]3C(=O)N(C)CC(=O)N(C)[C@@H](C(C)C)C(=O)O[C@@H]2C)c(N)c1=O [DACTINOMYCIN] (I: T[dV]P[Sar][NMeV] / II: T[dV]P[Sar][NMeV]; ester I:1-I:C, II:1-II:C; linker I:N-II:N via Actinocin(1to9))		4180 nM and > 10000 nM	214	323 nM and 807 nM	395 nM	
C[n+]1ccc(C=Cc2ccc(O)cc2)cc1 [listing 1 of 2 here]		> 10000 nM		303 nM	175 nM	
CCN1C(=Cc2sc3ccccc3[n+]2C)C=Cc2cccc(C)c21 [listing 2 of 2 here]		27400 nM		65.4 nM	228 nM	
CCN1/C(=C/c2ccc3ccccc3[n+]2CC)C=Cc2ccccc21		> 10000 nM and 36800 nM		618 nM and 65.8 nM	544 nM and 189 nM	
CCN1/C(=C/c2cccc[n+]2C)C=Cc2cc(C)ccc21	425	> 100000 nM	596	803 nM	959 nM	
CCN1C(=Cc2sc3cc(NC(C)=O)ccc3[n+]2CC)C=Cc2cc(C)ccc21		> 10000 nM	568	1570 nM		
C[n+]1ccccc1C=Cc1cc(Br)ccc1O [listing 2 of 2 here]		> 100000 nM		466 nM	308 nM	
CC[n+]1c(/C=C/N(C)c2ccccc2)n(-c2ccccc2)c2ccc(-c3nc4ccccc4s3)cc21		> 10000 nM and 26900 nM		> 929 nM and 460 nM	> 1730 nM and 314 nM	
Cc1ccc(-n2c(C)cc(/C=C3\SC(=Nc4ccc(Cl)cc4)NC3=O)c2C)cc1		> 100000 nM	611	512 nM and 194 nM	629 nM	
CC[n+]1c(C=CN(C)c2ccccc2)sc2ccc(Cl)cc21	156	> 10000 nM and 23000 nM	352	223 nM	367 nM	
CC[n+]1c(/C=C/c2ccc(N(C)C)cc2)sc2cc(NC(C)=O)ccc21	953	> 100000 nM		1500 nM	686 nM and 341 nM	
COc1cc(/C=C2/SC(=Nc3ccccc3)NC2=O)ccc1OCc1ccccc1F		> 100000 nM		> 1100 nM and 3670 nM	> 12500 nM	
CCN1/C(=C/c2ccc3cc(OC)ccc3[n+]2CC)Sc2ccc(NC(C)=O)cc21		> 52000 nM	82.6	31.1 nM and 113 nM	119 nM	
C[n+]1ccc(/C=C/c2c[nH]c3ccccc23)cc1		> 100000 nM	63.2	136 nM and 472 nM	95.9 nM	
C[n+]1ccc(C=Cc2ccc(O)cc2)cc1 [listing 2 of 2 here]		> 100000 nM		1430 nM	593 nM	
CCN1/C(=C/c2sc3ccccc3[n+]2CC)Sc2ccccc21 [listing 2 of 2 here]		32600 nM		557 nM	248 nM	
CN(C)c1ccc(C=CC=Cc2cccc[n+]2C)cc1	108	> 10000 nM	< 8.47			
COC(=O)C1=CN(Cc2ccc(OC)cc2)C=C(C(=O)OC)C1c1cccc([N+](=O)[O-])c1	2120		> 1250			No fit
